Test results as given in the supplement of paper PMC10307832.

What was measured:
Test in all cases: relative viability (nuclei count vs DMSO), 5 days (fraction); higher = more cells survive
ChaGo-K-1 = tested on: ChaGo-K-1
Summary of the method: (§1)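 Five library-drug doses in √10 steps were combined with a fixed anchor-drug dose, or a single drug was given alone, by pin tool to lung cancer cell lines in 1536-well plates the day after seeding. Nuclei were stained and counted after 5 days. Relative viability is the nuclei count in treated wells over that in vehicle wells, taken as the median of duplicate plates.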

EKVX = tested on: EKVX
Summary of the method: as §1

EMC-BAC-2 = tested on: EMC-BAC-2
Summary of the method: as §1

EPLC-272H = tested on: EPLC-272H
Summary of the method: as §1

HCC-78 = tested on: HCC-78
Summary of the method: as §1

HCC-827 = tested on: HCC-827
Summary of the method: as §1

LCLC-103H = tested on: LCLC-103H
Summary of the method: as §1

LK-2 = tested on: LK-2
Summary of the method: as §1

LU99A = tested on: LU99A
Summary of the method: as §1

NCI-H1563 = tested on: NCI-H1563
Summary of the method: as §1

NCI-H1666 = tested on: NCI-H1666
Summary of the method: as §1

NCI-H1975 = tested on: NCI-H1975
Summary of the method: as §1

NCI-H2126 = tested on: NCI-H2126
Summary of the method: as §1

NCI-H23 = tested on: NCI-H23
Summary of the method: as §1

NCI-H2405 = tested on: NCI-H2405
Summary of the method: as §1

NCI-H322M = tested on: NCI-H322M
Summary of the method: as §1

PC-14 = tested on: PC-14
Summary of the method: as §1

RERF-LC-KJ = tested on: RERF-LC-KJ
Summary of the method: as §1

SK-LU-1 = tested on: SK-LU-1
Summary of the method: as §1

SW 1573 = tested on: SW 1573
Summary of the method: as §1

For `Nc1ccn([C@@H]2O[C@H](CO)[C@@H](O)[C@@H]2O)c(=O)n1` [Cytarabine] + CS(=O)(=O)N1CCN(Cc2cc3nc(-c4cccc5[nH]ncc45)nc(N4CCOCC4)c3s2)CC1 [Pictilisib] (partner 1 µM), the relative viability (ChaGo-K-1; first compound 0.005 µM) was 0.583, the relative viability (ChaGo-K-1; first compound 0.01581 µM) was 0.459 and the relative viability (ChaGo-K-1; first compound 0.05 µM) was 0.284. The relative viability (ChaGo-K-1; first compound 0.1581 µM) was 0.365, the relative viability (ChaGo-K-1; first compound 0.5 µM) was 0.401 and the relative viability (EKVX; first compound 0.005 µM) was 0.486. For the same molecule, the relative viability (EKVX; first compound 0.01581 µM) was 0.362, the relative viability (EKVX; first compound 0.05 µM) was 0.406 and the relative viability (EKVX; first compound 0.1581 µM) was 0.2. It also gave a relative viability (EKVX; first compound 0.5 µM) of 0.163, a relative viability (EMC-BAC-2; first compound 0.005 µM) of 0.42 and a relative viability (EMC-BAC-2; first compound 0.01581 µM) of 0.494. The relative viability (EMC-BAC-2; first compound 0.05 µM) was 0.366, the relative viability (EMC-BAC-2; first compound 0.1581 µM) was 0.246 and the relative viability (EMC-BAC-2; first compound 0.5 µM) was 0.165. The relative viability (EPLC-272H; first compound 0.005 µM) was 0.246, the relative viability (EPLC-272H; first compound 0.01581 µM) was 0.297 and the relative viability (EPLC-272H; first compound 0.05 µM) was 0.242. For the same molecule, the relative viability (EPLC-272H; first compound 0.1581 µM) was 0.187, the relative viability (EPLC-272H; first compound 0.5 µM) was 0.207 and the relative viability (HCC-78; first compound 0.005 µM) was 0.234. The relative viability (HCC-78; first compound 0.01581 µM) was 0.196, the relative viability (HCC-78; first compound 0.05 µM) was 0.139 and the relative viability (HCC-78; first compound 0.1581 µM) was 0.141. The relative viability (HCC-78; first compound 0.5 µM) was 0.128, the relative viability (HCC-827; first compound 0.005 µM) was 1.05 and the relative viability (HCC-827; first compound 0.01581 µM) was 0.876. It also gave a relative viability (HCC-827; first compound 0.05 µM) of 0.683, a relative viability (HCC-827; first compound 0.1581 µM) of 0.474 and a relative viability (HCC-827; first compound 0.5 µM) of 0.408. For the same molecule, the relative viability (LCLC-103H; first compound 0.005 µM) was 0.614, the relative viability (LCLC-103H; first compound 0.01581 µM) was 0.624 and the relative viability (LCLC-103H; first compound 0.05 µM) was 0.565. For the same molecule, the relative viability (LCLC-103H; first compound 0.1581 µM) was 0.513, the relative viability (LCLC-103H; first compound 0.5 µM) was 0.617 and the relative viability (LK-2; first compound 0.005 µM) was 0.531. The relative viability (LK-2; first compound 0.01581 µM) was 0.476, the relative viability (LK-2; first compound 0.05 µM) was 0.426 and the relative viability (LK-2; first compound 0.1581 µM) was 0.23. The relative viability (LK-2; first compound 0.5 µM) was 0.235, the relative viability (LU99A; first compound 0.005 µM) was 0.372 and the relative viability (LU99A; first compound 0.01581 µM) was 0.305. It also gave a relative viability (LU99A; first compound 0.05 µM) of 0.282, a relative viability (LU99A; first compound 0.1581 µM) of 0.308 and a relative viability (LU99A; first compound 0.5 µM) of 0.299. For the same molecule, the relative viability (NCI-H1563; first compound 0.005 µM) was 0.595, the relative viability (NCI-H1563; first compound 0.01581 µM) was 0.649 and the relative viability (NCI-H1563; first compound 0.05 µM) was 0.657. The relative viability (NCI-H1563; first compound 0.1581 µM) was 0.589, the relative viability (NCI-H1563; first compound 0.5 µM) was 0.6 and the relative viability (NCI-H1666; first compound 0.005 µM) was 0.498. It also gave a relative viability (NCI-H1666; first compound 0.01581 µM) of 0.345, a relative viability (NCI-H1666; first compound 0.05 µM) of 0.381 and a relative viability (NCI-H1666; first compound 0.1581 µM) of 0.229. The relative viability (NCI-H1666; first compound 0.5 µM) was 0.205, the relative viability (NCI-H1975; first compound 0.005 µM) was 0.271 and the relative viability (NCI-H1975; first compound 0.01581 µM) was 0.281. For the same molecule, the relative viability (NCI-H1975; first compound 0.05 µM) was 0.311, the relative viability (NCI-H1975; first compound 0.1581 µM) was 0.289 and the relative viability (NCI-H1975; first compound 0.5 µM) was 0.195. The relative viability (NCI-H2126; first compound 0.005 µM) was 0.441, the relative viability (NCI-H2126; first compound 0.01581 µM) was 0.432 and the relative viability (NCI-H2126; first compound 0.05 µM) was 0.382. The relative viability (NCI-H2126; first compound 0.1581 µM) was 0.312, the relative viability (NCI-H2126; first compound 0.5 µM) was 0.29 and the relative viability (NCI-H23; first compound 0.005 µM) was 0.527. For the same molecule, the relative viability (NCI-H23; first compound 0.01581 µM) was 0.346, the relative viability (NCI-H23; first compound 0.05 µM) was 0.327 and the relative viability (NCI-H23; first compound 0.1581 µM) was 0.156. It also gave a relative viability (NCI-H23; first compound 0.5 µM) of 0.138, a relative viability (NCI-H2405; first compound 0.005 µM) of 0.398 and a relative viability (NCI-H2405; first compound 0.01581 µM) of 0.334. It also gave a relative viability (NCI-H2405; first compound 0.05 µM) of 0.319, a relative viability (NCI-H2405; first compound 0.1581 µM) of 0.301 and a relative viability (NCI-H2405; first compound 0.5 µM) of 0.229. It also gave a relative viability (NCI-H322M; first compound 0.005 µM) of 0.443, a relative viability (NCI-H322M; first compound 0.01581 µM) of 0.492 and a relative viability (NCI-H322M; first compound 0.05 µM) of 0.368. It also gave a relative viability (NCI-H322M; first compound 0.1581 µM) of 0.279, a relative viability (NCI-H322M; first compound 0.5 µM) of 0.308 and a relative viability (PC-14; first compound 0.01581 µM) of 0.698. It also gave a relative viability (PC-14; first compound 0.05 µM) of 0.49, a relative viability (PC-14; first compound 0.5 µM) of 0.126 and a relative viability (RERF-LC-KJ; first compound 0.005 µM) of 0.493. The relative viability (RERF-LC-KJ; first compound 0.01581 µM) was 0.459, the relative viability (RERF-LC-KJ; first compound 0.05 µM) was 0.487 and the relative viability (RERF-LC-KJ; first compound 0.1581 µM) was 0.428. For the same molecule, the relative viability (RERF-LC-KJ; first compound 0.5 µM) was 0.287, the relative viability (SK-LU-1; first compound 0.005 µM) was 0.519 and the relative viability (SK-LU-1; first compound 0.01581 µM) was 0.515. The relative viability (SK-LU-1; first compound 0.05 µM) was 0.333, the relative viability (SK-LU-1; first compound 0.1581 µM) was 0.216 and the relative viability (SK-LU-1; first compound 0.5 µM) was 0.216. For the same molecule, the relative viability (SW 1573; first compound 0.005 µM) was 0.362, the relative viability (SW 1573; first compound 0.01581 µM) was 0.378 and the relative viability (SW 1573; first compound 0.05 µM) was 0.317. The relative viability (SW 1573; first compound 0.1581 µM) was 0.134 and the relative viability (SW 1573; first compound 0.5 µM) was 0.106.
